In patent US20260124197A1, “NOVEL HETEROBICYCLIC COMPOUND FOR INHIBITING YAP-TEAD INTERACTION AND PHARMACEUTICAL COMPOSITION COMPRISING SAME” (priority 2022, published 2026):

System: TEAD transcriptional activity
Test: TEAD reporter activity inhibition test (luciferase reporter, MCF7 cell line)
Assay type: cell-based
Settings: Homo sapiens; TEAD (GTIIC) firefly luciferase reporter MCF7 cell line, 24 hours, ONE-Glo luminescence
Method: Experimental Example 1: TEAD Reporter Activity Inhibition Test
The ability of the synthetic compounds to inhibit TEAD target gene transcription was measured. This evaluation method measures the transcriptional activity of TEAD by measuring the luciferase luminescence expressed when TEAD binds to a target gene and activates transcription using the MCF7 cell line (BPS Bioscience, Inc., USA) in which a firefly luciferase reporter gene has been introduced into the specific binding structure of TEAD, GTIIC (5′-ACATTCCA-3′). Cell lines were cultured in MEM medium added with 10% FBS, 1% Penicillin/Streptomycin, 1% non-essential amino acids, 10 μg/ml insulin, and 400 μg/ml Geneticin, and Geneticin was excluded when testing for inhibition of TEAD reporter activity. […] cells/100 μl were dispensed into a white 96-well plate and cultured for 6 hours. 50 μl of the test compound diluted to 3× concentration was mixed into each well. After 24 hours of cell culture, the luciferase signal was measured by luminescence using the ONE-Glo luciferase assay system (Promega, E6120) following the manufacturer's protocol. The 50% inhibition value (IC50) for TEAD transcriptional activity was calculated using GraphPad Prism 9.
If the IC50 value is less than 100 nM, it is indicated as A, if it is at least 100 nM but less than 500 nM, it is indicated as B, and if it is 500 nM or more, it is indicated as C.

Row | Compound | IC50
1 | CNS(=O)(=O)c1ccc2c(c1)c(-c1nccnc1C)cn2-c1ccc(C(F)(F)F)cc1 [Example 1, N-methyl-3-(3-methylpyrazin-2-yl)-1-(4-(trifluoromethyl)phenyl)-1H-indole-5-sulfonamide] | ≥ 500 nM
2 | CNS(=O)(=O)c1ccc2c(c1)c(-c1ccn(C)n1)cn2-c1ccc(C(F)(F)F)cc1 [Example 3, N-methyl-3-(1-methyl-1H-pyrazol-3-yl)-1-(4-(trifluoromethyl)phenyl)-1H-indole-5-sulfonamide] | 100 to 500 nM
3 | CNS(=O)(=O)c1ccc2c(c1)c(-c1cnn(C)c1)cn2-c1ccc(C(F)(F)F)cc1 [Example 4, N-methyl-3-(1-methyl-1H-pyrazol-4-yl)-1-(4-(trifluoromethyl)phenyl)-1H-indole-5-sulfonamide] | 100 to 500 nM
4 | CNS(=O)(=O)c1ccc2c(c1)c(-c1cn(C)cn1)cn2-c1ccc(OC(F)(F)F)cc1 [Example 5, N-methyl-3-(1-methyl-1H-imidazol-4-yl)-1-(4-(trifluoromethoxy)phenyl)-1H-indole-5-sulfonamide] | 100 to 500 nM
5 | CNS(=O)(=O)c1ccc2c(c1)c(-c1cn(C(C)C)cn1)cn2-c1ccc(C(F)(F)F)cc1 [Example 6, 3-(1-isopropyl-1H-imidazol-4-yl)-N-methyl-1-(4-(trifluoromethyl)phenyl)-1H-indole-5-sulfonamide] | ≥ 500 nM
6 | CCNS(=O)(=O)c1ccc2c(c1)c(-c1cn(C)cn1)cn2-c1ccc(C(F)(F)F)cc1 [Example 7, N-ethyl-3-(1-methyl-1H-imidazol-4-yl)-1-(4-(trifluoromethyl)phenyl)-1H-indole-5-sulfonamide] | 100 to 500 nM
7 | CNS(=O)(=O)c1ccc2c(c1)c(-c1ccc(C)s1)cn2-c1ccc(C(F)(F)F)cc1 [Example 9, N-methyl-3-(5-methylthiophen-2-yl)-1-(4-(trifluoromethyl)phenyl)-1H-indole-5-sulfonamide] | 100 to 500 nM
8 | CNS(=O)(=O)c1ccc2c(c1)c(-c1cn(C)cn1)cn2-c1ccc(C(F)(F)F)cn1 [Example 12, N-methyl-3-(1-methyl-1H-imidazol-4-yl)-1-(5-(trifluoromethyl)pyridin-2-yl)-1H-indole-5-sulfonamide] | 100 to 500 nM
9 | CNS(=O)(=O)c1ccc2c(c1)c(-c1cn(C)cn1)cn2-c1ccc(Cl)cc1 [Example 14, 1-(4-chlorophenyl)-N-methyl-3-(1-methyl-1H-imidazol-4-yl)-1H-indole-5-sulfonamide] | 100 to 500 nM
10 | CNS(=O)(=O)c1ccc2c(c1)c(-c1ccncc1)cn2-c1ccc(C(F)(F)F)cc1 [Example 15, N-methyl-3-(pyridin-4-yl)-1-(4-(trifluoromethyl)phenyl)-1H-indole-5-sulfonamide] | 100 to 500 nM
11 | CNS(=O)(=O)c1ccc2c(c1)c(-c1ccccc1)cn2-c1ccc(C(F)(F)F)cc1 [Example 17, N-methyl-3-phenyl-1-(4-(trifluoromethyl)phenyl)-1H-indole-5-sulfonamide] | 100 to 500 nM
12 | CNS(=O)(=O)c1ccc2c(c1)c(-c1cn(C)cn1)cn2-c1ccc(C2CCCCC2)cc1 [Example 18, 1-(4-cyclohexylphenyl)-N-methyl-3-(1-methyl-1H-imidazol-4-yl)-1H-indole-5-sulfonamide] | ≥ 500 nM
13 | CN(C)S(=O)(=O)c1ccc2c(c1)c(-c1cn(C)cn1)cn2-c1ccc(C(F)(F)F)cc1 [Example 19, N,N-dimethyl-3-(1-methyl-1H-imidazol-4-yl)-1-(4-(trifluoromethyl)phenyl)-1H-indole-5-sulfonamide] | ≥ 500 nM
14 | CNS(=O)(=O)c1ccc2c(c1)c(-c1cn(C)cn1)cn2-c1cccc(C(F)(F)F)c1 [Example 21, N-methyl-3-(1-methyl-1H-imidazol-4-yl)-1-(3-(trifluoromethyl)phenyl)-1H-indole-5-sulfonamide] | 100 to 500 nM
15 | CNS(=O)(=O)c1ccc2c(c1)c(-c1cn(C)cn1)cn2-c1ccc(C#N)cc1 [Example 22, 1-(4-cyanophenyl)-N-methyl-3-(1-methyl-1H-imidazol-4-yl)-1H-indole-5-sulfonamide] | ≥ 500 nM
16 | CNS(=O)(=O)c1ccc2c(c1)c(-c1ccc(C)o1)cn2-c1ccccc1 [Example 24, N-methyl-3-(5-methylfuran-2-yl)-1-phenyl-1H-indole-5-sulfonamide] | 100 to 500 nM
17 | CNS(=O)(=O)c1ccc2c(c1)c(-c1cccc(F)c1F)cn2-c1ccc(C(F)(F)F)cc1 [Example 25, 3-(2,3-difluorophenyl)-N-methyl-1-(4-(trifluoromethyl)phenyl)-1H-indole-5-sulfonamide] | < 100 nM
18 | CNS(=O)(=O)c1ccc2c(c1)c(-c1cn(C)cn1)cn2-c1ccccc1 [Example 26, N-methyl-3-(1-methyl-1H-imidazol-4-yl)-1-phenyl-1H-indole-5-sulfonamide] | ≥ 500 nM
19 | CNS(=O)(=O)c1ccc2c(c1)c(-c1cn(C)cn1)cn2-c1ccc(C(F)(F)F)c(Cl)c1 [Example 27, 1-(3-chloro-4-(trifluoromethyl)phenyl)-N-methyl-3-(1-methyl-1H-imidazol-4-yl)-1H-indole-5-sulfonamide] | < 100 nM
20 | CNS(=O)(=O)c1ccc2c(c1)c(-c1c[nH]cn1)cn2-c1ccc(C(F)(F)F)cc1 [Example 29, 3-(1H-imidazol-4-yl)-N-methyl-1-(4-(trifluoromethyl)phenyl)-1H-indole-5-sulfonamide] | 100 to 500 nM
21 | CNS(=O)(=O)c1ccc2c(c1)c(-c1cn(Cc3ccccc3F)cn1)cn2-c1ccc(C(F)(F)F)cc1 [Example 30, 3-(1-(2-fluorobenzyl)-1H-imidazol-4-yl)-N-methyl-1-(4-(trifluoromethyl)phenyl)-1H-indole-5-sulfonamide] | < 100 nM
22 | CNS(=O)(=O)c1ccc2c(-c3cn(C)cn3)cn(-c3ccc(C(F)(F)F)cc3)c2c1 [Example 33, N-methyl-3-(1-methyl-1H-imidazol-4-yl)-1-(4-(trifluoromethyl)phenyl)-1H-indole-6-sulfonamide] | 100 to 500 nM
23 | CNS(=O)(=O)c1ccc2c(c1)c(-c1ccc(C(F)(F)F)o1)cn2-c1ccc(C(F)(F)F)cc1 [Example 34, N-methyl-3-(5-(trifluoromethyl)furan-2-yl)-1-(4-(trifluoromethyl)phenyl)-1H-indole-5-sulfonamide] | 100 to 500 nM
24 | CNS(=O)(=O)c1ccc2c(c1)c(-c1cn(C3COC3)cn1)cn2-c1ccc(C(F)(F)F)cc1 [Example 35, N-methyl-3-(1-(oxetan-3-yl)-1H-imidazol-4-yl)-1-(4-(trifluoromethyl)phenyl)-1H-indole-5-sulfonamide] | 100 to 500 nM
25 | CNS(=O)(=O)c1ccc2c(c1)c(-c1ccc(Cl)o1)cn2-c1ccc(C(F)(F)F)cc1 [Example 36, 3-(5-chlorofuran-2-yl)-N-methyl-1-(4-(trifluoromethyl)phenyl)-1H-indole-5-sulfonamide] | 100 to 500 nM
26 | CNS(=O)(=O)c1ccc2c(c1)c(-c1cn(CC(F)(F)F)cn1)cn2-c1ccc(C(F)(F)F)cc1 [Example 37, N-methyl-3-(1-(2,2,2-trifluoroethyl)-1H-imidazol-4-yl)-1-(4-(trifluoromethyl)phenyl)-1H-indole-5-sulfonamide] | < 100 nM
27 | CNS(=O)(=O)c1ccc2c(c1)c(-c1cn(C)cn1)cn2-c1ccc(C)cc1 [Example 39, N-methyl-3-(1-methyl-1H-imidazol-4-yl)-1-(p-tolyl)-1H-indole-5-sulfonamide] | 100 to 500 nM
